Results from US20230105212A1, “BIPHENYL DERIVATIVE INHIBITOR, PREPARATION METHOD THEREFOR AND USE THEREOF” (SHANGHAI HANSOH BIOMEDICAL CO., LTD., priority 2020, published 2023).

Assays:
[1] = Pharmacokinetic test of plasma and tumor of tumor-bearing nude mice; format: in vivo; settings: tumor-bearing nude mice, p.o. 30 mg/kg; for Kp: female, mouse, tumor/plasma, po, read-out: Tumor plasma ratio
Procedure: Test Embodiment 7. Pharmacokinetic Test of Plasma and Tumor of Tumor-Bearing Nude Mice
Taking tumor-bearing nude mice as the test animals, the pharmacokinetic behavior in the plasma and tumor of tumor-bearing nude mice of the following compound embodiments was studied when orally administered at a dose of 30 mg/kg.
Tumor-bearing nude mouse 21/embodiment, female, Shanghai B&K Laboratory Animal Co., Ltd., animal production license number (SCXK (Shanghai) 2013-0006 No. 311620400001794).
0.5% HPMC (1% Tween 80), dissolved by sonication, to prepare a clear solution or a homogeneous suspension.
Tumor-bearing nude mice, female; p.o. after overnight fasting, respectively, at a dose of 30 mg/kg, administered in a volume of 10 mL/kg.
Before and after administration of tumor-bearing nude mice, at 0, 1, 2, 4, 6, 8, 16 and 24 hours, 0.1 mL of blood was collected from the orbit, placed in an EDTA-K2 test tube, and centrifuged at 6000 rpm at 4° C. for 6 min to separate the plasma. After dissection, the tumor tissue was weighed and stored at −80° C.
1) Tumor tissue was homogenized with methanol and water at a ratio of 1:3, and then centrifuged to get the supernatant. 40 μL of tumor homogenate supernatant and 40 μL of plasma sample were added to 160 μL of acetonitrile for precipitation, and after mixing, centrifuged at 3500×g for 5 to 20 minutes.
2) 100 μL of the supernatant solution after treatment was taken for LC/MS/MS to analyze the concentration of the compounds to be tested.
2.7 Liquid Phase Analysis • Liquid phase condition: Shimadzu LC-20AD pump • MS conditions: AB Sciex API 4000 Mass Spectrometer • Chromatographic column: phenomenex Gemiu 5 μm C18 50×4.6 mm • Mobile phase: A solution was aqueous 0.1% formic acid solution, B solution was acetonitrile • Flow rate: 0.8 mL/min • Elution time: 0 to 4.0 minutes, the eluent was as follows:
The main parameters of pharmacokinetics were calculated with WinNonlin 8.2, and the results of the tumor-bearing nude mice pharmacokinetic experiments were shown in the following table: […]

[2] = system: NFAT-luc2/PD1 Jurkat cells; assay: In vitro cytotoxicity on NFAT-luc2/PD1 Jurkat cells (CellTiter-Glo); format: cell-based; settings: 72 hours; for IC50: Homo sapiens, Jurkat
Procedure: Test Embodiment 5. In Vitro Cytotoxicity of the Compounds of the Present Disclosure on NFAT-Luc2/PD1 Jurkat Cells and MC38-hPDL1 Cells
Experimental purpose: To test the in vitro cytotoxicity of compounds on NFAT-luc2/PD1 Jurkat cells and MC38-hPDL1 cells.
When the cells were cultured to an appropriate degree of confluency, the cells were collected, and the cells was adjusted in an appropriate cell concentration by complete medium, then the cell suspension was plated in a 96-well plate, 90 μL per well, and put in a 37° C., 5% CO2 incubator overnight; compound solutions of different concentrations were prepared by DMSO and medium, and a vehicle control was set; compound solutions were added to a 96-well plate, 10 μL per well, and put in a 37° C., 5% CO2 incubator and cultured for 72 hours. After that, CellTiter-Glo solution was added, the mixture was shaken and mixed evenly, incubated in the dark for 10 minutes, and a BioTek Synergy H1 microplate reader was used for reading.
Luminescence signal value was used to calculate the inhibition rate, and the concentration and inhibition rate were fitted by nonlinear regression curve using Graphpad Prism software to obtain IC50 values, as shown in the following table: […]

Structure (SMILES)	Kp [1]	Drug concentration in plasma [1]	Drug concentration in tumor [1]	Jurkat-PD1 inhibition rate (%) [2]	IC50 [2]
COc1nc(-c2cccc(-c3cccc(NC(=O)c4nc5c(n4C)CCN(C)C5)c3Cl)c2Cl)ccc1CNC(CO)CO [Embodiment 174, N-(2,2′-Dichloro-3′-(5-(((1,3-dihydroxypropan-2-yl)amino)methyl)-6-methoxypyridin-2-yl)-[1,1′-biphenyl]-3-yl)-1,5-dimethyl-4,5,6,7-tetrahydro-1H-imidazo[4,5-c]pyridine-2-carboxamide]	2.4	291 ng/mL	697 ng/mL	–	–
COc1nc(-c2cccc(-c3cccc(NC(=O)c4nc5c(n4C)CCN(C)C5)c3Cl)c2Cl)ccc1CN1CC(C(=O)N(C)C)C1 [Embodiment 183, N-(2,2′-Dichloro-3′-(5-((3-(dimethylcarbamoyl)azetidin-1-yl)methyl)-6-methoxypyridin-2-yl)-[1,1′-biphenyl]-3-yl)-1,5-dimethyl-4,5,6,7-tetrahydro-1H-imidazo[4,5-c]pyridine-2-carboxamide]	2.3	309 ng/mL	697 ng/mL	71%	5.82 µM
COc1nc(-c2cccc(-c3cccc(NC(=O)c4nc5c(n4C)CCN(C)C5)c3Cl)c2Cl)cnc1CN1CC(NC(C)=O)C1 [Embodiment 218, N-(3′-(5-((3-Acetylaminoazetidin-1-yl)methyl)-6-methoxypyrazin-2-yl)-2,2′-dichloro-[1,1′-biphenyl]-3-yl)-1,5-dimethyl-4,5,6,7-tetrahydro-1H-imidazo[4,5-c]pyridine-2-carboxamide]	–	–	–	85%	4.32 µM
COc1nc(-c2cccc(-c3cccc(NC(=O)c4nc5c(n4C)CCN(C)C5)c3Cl)c2Cl)ncc1CN1CC(CNC(C)=O)C1 [Embodiment 225, N-(3′-(5-((3-(Acetylaminomethyl)azetidin-1-yl)methyl)-4-methoxypyrimidin-2-yl)-2,2′-dichloro-[1,1′-biphenyl]-3-yl)-1,5-dimethyl-4,5,6,7-tetrahydro-1H-imidazo[4,5-c]pyridine-2-carboxamide]	–	–	–	51%	9.07 µM

Further lines, with some results ahead:

Kp [1]	Drug concentration in plasma [1]	Drug concentration in tumor [1]	Structure (SMILES)	Jurkat-PD1 inhibition rate (%) [2]	IC50 [2]
3.5	432 ng/mL	1504 ng/mL	COc1nc(-c2cccc(-c3cccc(NC(=O)c4nc5c(n4C)CCN(C)C5)c3Cl)c2Cl)ncc1CN1CC(CO)C1 [Embodiment 223, N-(2,2′-Dichloro-3′-(5-((3-(hydroxymethyl)azetidin-1-yl)methyl)-4-methoxypyrimidin-2-yl)-[1,1′-biphenyl]-3-yl)-1,5-dimethyl-4,5,6,7-tetrahydro-1H-imidazo[4,5-c]pyridine-2-carboxamide]	77%	4.77 µM
2.2	291 ng/mL	628 ng/mL	COc1nc(-c2cccc(-c3cccc(NC(=O)c4nc5c(n4C)CCN(C)C5)c3Cl)c2Cl)ccc1CN1CC(O)(CO)C1 [Embodiment 173, N-(2,2′-Dichloro-3′-(5-((3-hydroxy-3-(hydroxymethyl)azetidin-1-yl)methyl)-6-methoxypyridin-2-yl)-[1,1-biphenyl]-3-yl)-1,5-dimethyl-4,5,6,7-tetrahydro-1H-imidazo[4,5-c]pyridine-2-carboxamide]	–	–
